Measured values published in US9427415B2, “Methods and compositions for modifying sensorial perception” (The Procter & Gamble Company, priority 2014, dated 2016).
Read-outs that look alike come from different tables or passages of the source.

Tests used:
TRPA1V1 = test: Intracellular calcium (Fluo-4, FLIPR) activation of TRPA1V1 cells (co-expressing TRPA1 and TRPV1) by GRAS compounds; format: cell-based, human;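 also: HEK293 cells co-expressing TRPA1 and TRPV1, fluorescence read at 488/514 nm after baseline subtraction, recorded every 2 s over 10 min, ionomycin 10 µM and buffer as controls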
Description: TRPV1, TRPA1, TRPA1V1 and pcDNA3 cells were grown in 15 mL growth medium [high glucose DMEM (Dulbecco's modification of Eagle's medium) supplemented with 10% FBS (fetal bovine serum), 100 μg/mL penicillin/streptomycin, 100 μg/mL G418] in a 75 cm^2 flask for 3 days in a mammalian cell culture incubator at 33° C. and 5% CO2. TRP Cells were detached with 8 mL of PBS (without calcium or magnesium); for pcDNA3 cells, trypsin was used for releasing the cells. The detached cells were spun at low speed (800-900 rpm for 3 min) to pellet the cells. […] The cells were washed once with 45 mL assay buffer (1×HBSS, 20 mM HEPES) by low speed centrifugation (800-900 rpm for 3 min) and resuspended in 11 mL of the assay buffer in a reagent reservoir. […] The plates were set at room temperature for 30 min. The plates were read in a FLIPR^TETRA instrument (Molecular Devices, Sunnyvale, Calif.) at λex 488 nm and λem 514 nm to record baseline fluorescence following which 20 μL of test material at 1 mM or 100 μM final concentration for pure compounds in a GRAS library or 0.004% for extracts. For agonists, capsaicin 350 nM and AITC at 30 μM; and for controls, ionomycin 10 μM and buffer alone) was added to each well using the dispenser provided in the FLIPR. The data point was recorded every 2 seconds for a total of 10 min.
Average value for activation from three independent assay plates are presented as % of agonist value (AITC, 30 μM for TRPA1 and capsaicin, 350 nM for TRPV1. For TRPA1V1, we used AITC, 30 μM or capsaicin, 350 nM depending on if the compound is an A1 agonist or a V1 agonist. For compounds that activated both A1 and V1, we used AITC for normalization). Variation among triplicates was within 10% of each other. Assayed at 1 mM for pure compounds and 0.004% for extracts.

human TRPA1 = target: T1, human TRPA1 (Homo sapiens, UniProt O75762, K186N/R3C/R58T); test: Intracellular calcium (Fluo-4, FLIPR) activation of TRPA1 cells by GRAS compounds; format: cell-based; settings: relative to AITC 30 μM; for activation at 1000 µM: 1 mM; for activation at 1000 µM / activation at 100 µM: read-out: A1 activation, % of agonist value;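 as to all read-outs here: TRPA1-expressing cells, fluorescence read on a FLIPR Tetra (ex 488 nm, em 514 nm) every 2 s for 10 min after compound addition, baseline subtracted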
T1 construct: expressed in transfected cells; pcDNA3 control cells
T1 sequence (O75762 whole entry R3C/R58T/K186N): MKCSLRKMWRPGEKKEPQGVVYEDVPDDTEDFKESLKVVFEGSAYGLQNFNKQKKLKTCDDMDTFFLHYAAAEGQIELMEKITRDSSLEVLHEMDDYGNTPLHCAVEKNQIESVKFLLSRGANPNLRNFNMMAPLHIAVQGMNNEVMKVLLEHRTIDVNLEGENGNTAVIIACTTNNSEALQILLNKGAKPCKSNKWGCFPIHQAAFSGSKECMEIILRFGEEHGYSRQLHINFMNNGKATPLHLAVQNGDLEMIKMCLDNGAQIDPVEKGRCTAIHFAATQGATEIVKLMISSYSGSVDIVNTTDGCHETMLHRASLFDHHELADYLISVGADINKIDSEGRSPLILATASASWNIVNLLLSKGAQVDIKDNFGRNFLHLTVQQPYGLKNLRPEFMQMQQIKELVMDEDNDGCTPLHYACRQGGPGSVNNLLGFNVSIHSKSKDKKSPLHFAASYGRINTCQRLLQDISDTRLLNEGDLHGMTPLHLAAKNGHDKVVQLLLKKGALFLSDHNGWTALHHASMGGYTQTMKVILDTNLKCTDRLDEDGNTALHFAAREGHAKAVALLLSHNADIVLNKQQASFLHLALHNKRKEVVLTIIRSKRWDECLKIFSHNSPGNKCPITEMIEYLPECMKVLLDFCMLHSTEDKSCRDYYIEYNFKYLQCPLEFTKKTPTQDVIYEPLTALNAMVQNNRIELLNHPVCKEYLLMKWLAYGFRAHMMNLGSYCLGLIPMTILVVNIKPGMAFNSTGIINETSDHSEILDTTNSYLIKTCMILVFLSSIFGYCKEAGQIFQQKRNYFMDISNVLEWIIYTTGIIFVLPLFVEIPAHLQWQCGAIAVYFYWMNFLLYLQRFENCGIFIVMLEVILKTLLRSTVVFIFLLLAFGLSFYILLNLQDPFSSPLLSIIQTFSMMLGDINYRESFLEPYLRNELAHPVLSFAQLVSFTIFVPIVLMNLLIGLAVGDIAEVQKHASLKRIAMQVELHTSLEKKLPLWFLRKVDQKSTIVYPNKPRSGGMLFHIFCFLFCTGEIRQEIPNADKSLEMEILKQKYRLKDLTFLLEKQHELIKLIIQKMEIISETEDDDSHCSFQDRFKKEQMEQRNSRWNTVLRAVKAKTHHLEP

human TRPV1 = target: T2, human TRPV1 (Homo sapiens, UniProt Q8NER1, M315I/T336M); test: Intracellular calcium (Fluo-4, FLIPR) activation of TRPV1 cells by GRAS compounds; format: cell-based; settings: for activation at 1000 µM: 1 mM; for activation at 1000 µM / activation at 100 µM: read-out: V1 activation, % of agonist value; for TRPV1 activation selectivity, in words: statement in description, see Table 1(i);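 as to all read-outs here: TRPV1-expressing cells, FLIPR fluorescence at 488/514 nm with baseline subtracted, sampled every 2 s for 10 min after adding compound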
T2 construct: expressed in transfected cells; pcDNA3 control cells
T2 sequence (Q8NER1 whole entry M315I/T336M): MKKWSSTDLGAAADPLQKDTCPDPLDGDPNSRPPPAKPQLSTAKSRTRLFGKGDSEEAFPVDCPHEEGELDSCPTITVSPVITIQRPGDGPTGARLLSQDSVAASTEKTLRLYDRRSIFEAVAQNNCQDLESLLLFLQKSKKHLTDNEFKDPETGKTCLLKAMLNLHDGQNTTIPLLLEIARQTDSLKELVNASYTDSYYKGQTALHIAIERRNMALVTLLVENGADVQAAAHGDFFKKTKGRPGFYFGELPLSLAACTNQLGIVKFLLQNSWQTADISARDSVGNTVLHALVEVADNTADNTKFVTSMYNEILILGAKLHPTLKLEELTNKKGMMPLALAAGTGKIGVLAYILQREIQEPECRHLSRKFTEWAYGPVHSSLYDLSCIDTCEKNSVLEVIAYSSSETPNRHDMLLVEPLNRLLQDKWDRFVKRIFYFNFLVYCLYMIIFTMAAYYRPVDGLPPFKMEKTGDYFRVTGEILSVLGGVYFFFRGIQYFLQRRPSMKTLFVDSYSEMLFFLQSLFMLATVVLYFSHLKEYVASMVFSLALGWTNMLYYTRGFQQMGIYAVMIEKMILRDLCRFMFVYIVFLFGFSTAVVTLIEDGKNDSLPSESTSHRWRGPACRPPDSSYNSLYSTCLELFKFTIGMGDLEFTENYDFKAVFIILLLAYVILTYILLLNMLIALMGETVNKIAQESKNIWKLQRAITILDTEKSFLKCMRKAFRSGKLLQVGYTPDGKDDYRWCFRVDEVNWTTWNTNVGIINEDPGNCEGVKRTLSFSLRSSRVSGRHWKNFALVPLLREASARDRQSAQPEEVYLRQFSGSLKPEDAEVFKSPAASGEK

[1] = Table 1(a), 1 mM, relative to AITC 30 μM, average of three plates
[2] = Table 1(a), average of three plates
[3] = Table 1(a), relative to capsaicin 350 nM, average of three plates
[4] = Table 1(d), 100 μM (*), relative to AITC 30 μM
[5] = Table 1(i), 100 μM (*), relative to AITC 30 μM or capsaicin 350 nM depending on compound, […]
[6] = Table 1(i), 100 μM (*), relative to capsaicin 350 nM, […]
[7] = Table 1(b), 1 mM, relative to AITC 30 μM
[8] = Table 1(b), relative to capsaicin 350 nM
[9] = Table 1(a), 100 μM (*), relative to AITC 30 μM
[10] = Table 1(a), 100 μM (*), relative to capsaicin 350 nM

C=CC(=O)CCCCC [1-Octen-3-one]
A1V1 activation, % of agonist value (TRPA1V1; [1]): 98.9% | activation at 1000 µM (human TRPA1; [2]): 118% | activation at 1000 µM (human TRPV1; [3]): 63.2%

CC(=O)C(=O)c1ccccc1 [1-Phenyl-1,2-propanedione]
A1V1 activation, % of agonist value (TRPA1V1; [1]): 105.5% | A1V1 activation, % of agonist value (TRPA1V1; [4]): 71.4% | activation at 1000 µM (human TRPA1; [2]): 98.6% | activation at 100 µM (human TRPA1; Table 1(d), 100 μM (*)): 100% | activation at 1000 µM (human TRPV1; [3]): 66.6%

Cc1ccc(C)c(O)c1C [2,3,6-Trimethylphenol]
A1V1 activation, % of agonist value (TRPA1V1; [1]): 91.4% | activation at 1000 µM (human TRPA1; [2]): 90% | activation at 1000 µM (human TRPV1; [3]): 74.8%

CC1=NC(C)OC1C (stereo not shown) [2,4,5-Trimethyl-3-oxazoline]
A1V1 activation, % of agonist value (TRPA1V1; [5]): 4.1% | activation at 100 µM (human TRPA1; Table 1(i), 100 μM (*), […]): 2.1% | activation at 100 µM (human TRPV1; [6]): 101% | TRPV1 activation selectivity, in words (human TRPV1): TRPV1 activators which do not modulate TRPA1 or TRPA1V1

c1ccc(CCCc2ccccn2)cc1 [2-(3-Phenylpropyl)pyridine]
A1V1 activation, % of agonist value (TRPA1V1; [1]): 74.53% | activation at 1000 µM (human TRPA1; [2]): 76% | activation at 1000 µM (human TRPV1; [3]): 21.5%

O=Cc1cc2ccccc2o1 [2-Benzofurancarboxaldehyde]
A1V1 activation, % of agonist value (TRPA1V1; [1]): 102.3% | activation at 1000 µM (human TRPA1; [2]): 91% | activation at 1000 µM (human TRPV1; [3]): 57.6%

CCCCc1ccco1 [2-Butylfuran]
A1V1 activation, % of agonist value (TRPA1V1; [1]): 62.77% | activation at 1000 µM (human TRPA1; [2]): 68.5% | activation at 1000 µM (human TRPV1; [3]): 20.2%

O=C1CCCC1C1CCCC1 (stereo not shown) [2-Cyclopentylcyclopentanone]
A1V1 activation, % of agonist value (TRPA1V1; [7]): 90.8% | activation at 1000 µM (human TRPA1; Table 1(b)): 25% | activation at 1000 µM (human TRPV1; [8]): 24%

CCc1ccco1 [2-Ethylfuran]
A1V1 activation, % of agonist value (TRPA1V1; [5]): 1.8% | activation at 100 µM (human TRPA1; Table 1(i), 100 μM (*), […]): 1.2% | activation at 100 µM (human TRPV1; [6]): 58.7% | TRPV1 activation selectivity, in words (human TRPV1): TRPV1 activators which do not modulate TRPA1 or TRPA1V1

Cc1nccnc1SCc1ccco1 [2-Furfurylthio-3-methylpyrazine]
A1V1 activation, % of agonist value (TRPA1V1; [9]): 80.9% | activation at 100 µM (human TRPA1; Table 1(a), 100 μM (*)): 80.7% | activation at 100 µM (human TRPV1; [10]): 31.3%

C=Cc1ccc(O)c(OC)c1 [2-Methoxy-4-vinylphenol]
A1V1 activation, % of agonist value (TRPA1V1; [1]): 81.90% | activation at 1000 µM (human TRPA1; [2]): 74.8% | activation at 1000 µM (human TRPV1; [3]): 20.7%

CCC(C)COC(=O)CC(C)C (stereo not shown) [2-Methylbutyl isovalerate]
A1V1 activation, % of agonist value (TRPA1V1; Table 1(i), 1 mM, relative to AITC 30 μM or capsaicin 350 nM depending on compound, […]): 2.1% | activation at 1000 µM (human TRPA1; Table 1(i), […]): 1.7% | activation at 1000 µM (human TRPV1; Table 1(i), relative to capsaicin 350 nM, […]): 75.3% | TRPV1 activation selectivity, in words (human TRPV1): TRPV1 activators which do not modulate TRPA1 or TRPA1V1

Sc1ccc2ccccc2c1 [2-Napthlaenthiol]
A1V1 activation, % of agonist value (TRPA1V1; [9]): 85.2% | A1 activation, % of agonist value (human TRPA1; Table 1(a), 100 μM (*)): 66.3% | V1 activation, % of agonist value (human TRPV1; [10]): 120.3%

CCCc1ccccc1O [2-Propylphenol]
A1V1 activation, % of agonist value (TRPA1V1; [1]): 183.8% | activation at 1000 µM (human TRPA1; [2]): 126% | activation at 1000 µM (human TRPV1; [3]): 96.9%

CC(CC=O)CC(C)(C)C (stereo not shown) [3,5,5-Trimethylhexanal]
A1V1 activation, % of agonist value (TRPA1V1; [7]): 114.7% | activation at 1000 µM (human TRPA1; Table 1(b)): 133% | activation at 1000 µM (human TRPV1; [8]): 217%

CCC(S)C(C)=O (stereo not shown) [3-Mercapto-2-pentanone]
A1V1 activation, % of agonist value (TRPA1V1; [1]): 72.6% | A1V1 activation, % of agonist value (TRPA1V1; Table 1(c), 100 μM (*), relative to AITC 30 μM): 100% | activation at 1000 µM (human TRPA1; [2]): 92% | activation at 100 µM (human TRPA1; Table 1(c), 100 μM (*)): 103% | activation at 1000 µM (human TRPV1; [3]): 59.2%

CC(=O)C(C)S (stereo not shown) [3-Mercaptobutanone, 3-Mercapto-2-butanone]
A1V1 activation, % of agonist value (TRPA1V1; [7]): 80.9% | A1V1 activation, % of agonist value (TRPA1V1; [4]): 53.3% | activation at 1000 µM (human TRPA1; Table 1(b)): 50.4% | activation at 100 µM (human TRPA1; Table 1(d), 100 μM (*)): 68.9% | activation at 1000 µM (human TRPV1; [8]): 63.8%

CC(C)C(C=O)c1ccccc1 (stereo not shown) [3-Methyl-2-Phenylbutyraldehyde]
A1V1 activation, % of agonist value (TRPA1V1; [1]): 93.08% | activation at 1000 µM (human TRPA1; [2]): 90.6% | activation at 1000 µM (human TRPV1; [3]): 75.8%

CCCC1CC(=O)C=C(C)C1 (stereo not shown) [3-Methyl-5-propyl-2-cyclohexen-1-one]
A1V1 activation, % of agonist value (TRPA1V1; [7]): 101.0% | activation at 1000 µM (human TRPA1; Table 1(b)): 69% | activation at 1000 µM (human TRPV1; [8]): 59.2%

CCCCC=CC(C)=O [3-Octen-2-one]
A1V1 activation, % of agonist value (TRPA1V1; [1]): 45.60% | activation at 1000 µM (human TRPA1; [2]): 52.7% | activation at 1000 µM (human TRPV1; [3]): 30%

OCCCc1ccccc1 [3-Phenylpropanol]
A1V1 activation, % of agonist value (TRPA1V1; [7]): 64.94% | activation at 1000 µM (human TRPA1; Table 1(b)): 51.4% | activation at 1000 µM (human TRPV1; [8]): 32%

CCCCC(=O)C(CCC)Sc1ccoc1C (stereo not shown) [4-(2-Methyl-3-furylthio)-5-nonanone]
A1V1 activation, % of agonist value (TRPA1V1; [4]): 34.1% | A1V1 activation, % of agonist value (TRPA1V1; Table 1(g), 1 mM, relative to capsaicin 350 nM): 64% | activation at 100 µM (human TRPA1; Table 1(d), 100 μM (*)): 52.5% | activation at 1000 µM (human TRPV1; Table 1(g), relative to capsaicin 350 nM): 40.6%

CC1=C(O)C(=O)CO1 [4-Hydroxy-5-methyl-3-furanone]
A1V1 activation, % of agonist value (TRPA1V1; [1]): 38% | activation at 1000 µM (human TRPA1; [2]): 58% | activation at 1000 µM (human TRPV1; [3]): 40.5%
